# In article PMC11243672, “New 3-(Dibenzyloxyphosphoryl)isoxazolidine Conjugates of N1-Benzylated Quinazoline-2,4-diones as Potential Cytotoxic Agents against Cancer Cell Lines” (Molecules, 2024):
# Entries after “also recorded” stand apart in the source; their conditions may differ.
# Experiments:
# [1] = system: human embryonic kidney cells (HEK293); assay: Safety study in vitro (MTS viability), HEK293; format: cell-based; conditions: 0.205–50 μM, 72 h
# Procedure: (§1) In drug development, particular attention should be paid to studying the safety profile of compounds. Promising drug candidates should not cause adverse effects on essential organ systems like the liver, kidney, or healthy cells in general. Systemic toxicity of the compound is the main factor limiting its therapeutic application and efficiency. In our study, a preliminary study on nephrotoxicity and hepatotoxicity was evaluated in human embryonic kidney cells (HEK293, ATCC® CRL1573™) and human hepatoma cells (HepG2, ATCC® HB8065™), respectively. HEK293 is commonly used to evaluate the cytotoxicity of nephrotoxic compounds [42]. HepG2 is a well-established in vitro human cell system to study liver toxicity. We also used healthy human skin fibroblast (HSF) to extend the cytotoxicity profile. All three cell lines were cultured in DMEM (Gibco no. 61965-026, UK) supplemented with 10% FBS (Gibco no. 10500-064, UK). For the experiment, cells were seeded (8 × 10^3 cells/100μL/well) in transparent 96-well plates (FALCON no. 353072, Corning, Durham, […], USA) and cultured overnight. […] DOX was a reference compound that adversely affected the liver, kidney, and healthy cells. Treatment with compounds was carried out for 72 h. Cell viability was examined using an MTS-based CellTiter96® AQueous One Solution Cell Proliferation Assay (Promega, Madison, WI, USA) following the manufacturer’s protocol.
# [2] = system: human hepatoma cells (HepG2); assay: Safety study in vitro (MTS viability), HepG2; format: cell-based; conditions: 0.205–50 μM, 72 h
# Procedure: as §1
# PC-3 cell line = assay: IncuCyte caspase-3/7 apoptosis induction assay; format: cell-based, human; conditions: PC-3 cells, tested at 1 µM and 10 µM, monitored for 28 h; staurosporine 1 µM positive control
# Procedure: Apoptosis induction tests were conducted using the IncuCyte system to test cells (PC-3) in an in vitro culture. […] The compounds were tested at 1 µM and 10 µM concentrations, and apoptosis was monitored for 28 h (Figure 6). The incubation time was selected based on the induction of apoptosis in the control cells. Staurosporine (STA) at a concentration of 1 µM was used as the positive control, while the negative control cells were treated with 0.1% DMSO (vehicle control). […].
# Apoptosis was monitored in real time using the Incucyte® Caspase-3/7 for […] Dyes (Cat. No. 4776, Sartorius, Ann Arbor, MI, USA). The principle of this test is based on binding a DNA intercalating dye with the activation motif (DEVD) of caspase-3/7, allowing a quantitative analysis of cells to undergo caspase-3/7-mediated apoptosis in real time. For the experiment, PC3 cells were seeded in a black 96-well plate with transparent bottom (cat. no. 165305, ThermoScientific, Waltham, MA, USA) at 10,000 cells/well density and cultured overnight. The next day, the medium was removed, and the cells were treated with the tested compound. […] The IncuCyte S3 imaging system recorded kinetic measures of the number of caspase-3/7 positive cells. Repeat scanning to record phase and fluorescence images were every 2 h, for up to 28 h. […]
# [3] = system: fibrosarcoma cells (HT-1080); assay: MTS-based cytotoxicity assay, HT-1080; format: cell-based, human; conditions: Homo sapiens, HT-1080, 72 h, 72 h treatment, 0.205–50 μM, mean ± SEM
# Procedure: (§2) In this study, we applied the most extensively used MTS-based assay, which provides a valuable tool for determining cell viability by evaluating metabolic activity. The cytostatic activity of the tested compounds was defined as the half-maximal inhibitory concentration (IC50) causing a 50% decrease in the metabolic activity of the cells. It was determined against breast cancer (MCF-7), fibrosarcoma (HT-1080), and prostate cancer (PC-3) cells.
# (§3) The tested compounds were tested against three different human cancer cell lines (breast adenocarcinoma MCF-7 ATCC® HTB-22^TM, fibrosarcoma HT-1080 ATCC® CCL121^TM, and prostate adenocarcinoma PC-3 ATCC® CRL-1435^TM). For the cell viability experiment, cells were seeded in transparent 96-well plates (FALCON no. 353072, Corning, Durham, NC, USA) in MEM (Gibco no. 31095-029, UK) supplemented with 10% heat-inactivated FBS (Gibco no. 10500-064, UK). The cell seeding density was as follows: MCF-7 12,000 cells/well, HT-1080 7000 cells/well, PC-3 10,000 cells/well. Cells were seeded one day before treatment with the tested compounds and cultured overnight. The confluence on the treatment day was around 30%. The tested compounds were dissolved in DMSO as 10 mM stock solutions and kept under −4 °C. On the day of experimentation, the medium was removed and replaced with a fresh one that contained the following: (1) dimethylsulfoxide (DMSO < 0.1%, vehicle control (Veh)); (2) increasing the concentration of compounds (0.205–50 μM, performed as a 2.5-fold serial dilution for dose–response analysis). Treatment with compounds was carried out for 72 h. Each treatment was replicated three times in a single experiment, with three separate experiments conducted. (n = 9). When significant variability in the results occurred, an additional test was performed on certain compounds. During the incubation, the cells were examined under an inverted microscope to check if the compounds had not precipitated in the culture medium. The inhibitory effect of compounds on the cell was examined using an MTS-based assay (Promega, Madison, WI, USA) following the manufacturer’s protocol. The absorbance was measured at 490 nm using Tecan Spark’s multimode plate reader (Tecan, Männedorf, Switzerland). A reference wavelength of 630 nm was used to subtract the background. IC50 values were calculated by fitting a non-linear regression to a sigmoidal dose–response curve in GraphPad Prism version 8.0.1.
# [4] = system: breast cancer cells (MCF-7); assay: MTS-based cytotoxicity assay, MCF-7; format: cell-based, human; conditions: Homo sapiens, MCF7, 72 h, 72 h treatment, 0.205–50 μM, mean ± SEM
# Procedure: as §2, §3
# [5] = system: prostate cancer cells (PC-3); assay: MTS-based cytotoxicity assay, PC-3; format: cell-based, human; conditions: Homo sapiens, 72 h, 72 h treatment, 0.205–50 μM, mean ± SEM
# Procedure: as §2, §3
# [6] = system: human skin fibroblast (HSF); assay: Safety study in vitro (MTS viability), HSF; format: cell-based; conditions: 0.205–50 μM, 72 h
# Procedure: as §1
# [7] = system: human lymphocyte cell line (CEM); set-up: method as in PMID 30060562; conditions: anticancer activity; cited from earlier work
# [8] = system: breast cancer cell line (MCF-7); set-up: method as in doi:10.1016/j.tet.2006.12.076; conditions: cancer cell line growth inhibition; cited from earlier work
# [9] = system: colorectal adenoma cancer cell line (HT-29); set-up: method as in doi:10.1016/j.tet.2006.12.076; conditions: cancer cell line growth inhibition; cited from earlier work
# Jurkat cell line = system: Jurkat cell line; set-up: method as in PMID 20813537; conditions: antitumor effect; cited from earlier work
# HepG2 = system: HepG2; set-up: method as in PMID 32510731; conditions: antiproliferative activity; cited from earlier work
# HCT-116 [10] = system: HCT-116; set-up: method as in PMID 32510731; conditions: antiproliferative activity; cited from earlier work
# MCF-7 = system: MCF-7; set-up: method as in PMID 32510731; conditions: antiproliferative activity; cited from earlier work
# [11] = system: PARP2 (poly(ADP-ribose)polymerase 2); set-up: method as in PMID 37843892; conditions: cited from earlier work
# [12] = system: PARP1 (poly(ADP-ribose)polymerase 1); set-up: method as in PMID 37843892; conditions: cited from earlier work
# HCT-116 [13] = system: HCT-116; set-up: method as in PMID 37903949; conditions: cytotoxic activity; cited from earlier work
# [14] = system: epidermoid carcinoma cell line (KB); conditions: cytotoxicity; cited from earlier work
# [15] = system: murine leukemia cell line (L1210); conditions: cytotoxicity; cited from earlier work
compound,measurement,setting,value
"O=c1c2ccccc2n(C[C@@H]2C[C@@H](P(=O)(OCc3ccccc3)OCc3ccccc3)N(Cc3ccccc3)O2)c(=O)n1Cc1ccccc1F (relative stereo) [trans-16b, Dibenzyl cis- and trans-5-((3-(2-fluorobenzyl)-3,4-dihydro-2,4-dioxoquinazolin-1(2H)-yl)methyl)-2-benzylisoxazolidin-3-yl-3-phosphonate]","Cell viability, HEK293",[1],did not affect cell viability
same,"Cell viability, HepG2",[2],did not affect cell viability
same,Induction of apoptosis (caspase-3/7 positive cells),PC-3 cell line,comparable to that induced with staurosporine; also recorded: highest induction of apoptosis; also recorded: strongly induced apoptosis
same,IC50,[3],34.6 ± 5.3 µM
same,IC50,[4],78.7 ± 2.35 µM
same,IC50,[5],9.84 ± 3.69 µM
same,"Cell viability, HSF",[6],no adverse effect was observed
O=c1[nH]cc(F)c(=O)[nH]1 [5-Fluorouracil],IC50,[7],18 ± 5 µM
same,"GI, MCF-7",[8],31%
same,"GI, HT-29",[9],34%
Cc1cn(C2CC(c3ccccc3Cl)N(C)O2)c(=O)[nH]c1=O (stereo not shown) [Compound 5],IC50,Jurkat cell line,8.8 ± 4.4 µM
O=C(Cn1c(=O)c2ccccc2n(Cc2ccccc2)c1=O)Nc1ccc(C(=O)N/N=C/c2ccc(Cl)cc2)cc1 [Compound 14],GI50,HepG2,9.16 ± 0.8 µM
same,GI50,HCT-116 [10],5.69 ± 0.4 µM
same,GI50,MCF-7,5.27 ± 0.2 µM
O=C(c1cc(Cn2c(=O)[nH]c(=O)c3ccccc32)ccc1F)N1CCN(C2CCCC2)C(=O)C1 [Compound 15],PARP2 inhibition,[11],inhibited
same,PARP1 inhibition,[12],inhibited
"COc1cc2nccc(Oc3ccc(NC(=O)C4(C(=O)Nc5ccc(F)cc5)CC4)cc3)c2cc1OC [cabozantinib, reference compound]",IC50,HCT-116 [13],16.4 ± 0.86 µM
C(=C/CCCCN1OC(CCCCCCCCc2cccnc2)C2CCCC21)/CCCCCCCCCc1cccnc1 (stereo not shown) [pyrinodemin A],"IC50, KB",[14],0.5 mg/L
same,"IC50, L1210",[15],0.058 mg/L
